The results in this text go back to patent publication US9249131B2, “Modulators of ATP-binding cassette transporters” (Vertex Pharmaceuticals Incorporated, priority 2003, dated 2016).

Where only a bound is given, the exact number is not on record here.

In this experiment the target is T1, ΔF508-CFTR (Homo sapiens, UniProt P13569, DEL508-508).
T1 construct: expressed in transfected cells; host or cells: NIH3T3 mouse fibroblasts stably expressing ΔF508-CFTR for the optical, whole-cell and single-channel assays; Fisher rat epithelial (FRT) cells for Ussing chamber follow-up
T1 sequence (P13569 with tags, fused parts or gaps DEL508-508): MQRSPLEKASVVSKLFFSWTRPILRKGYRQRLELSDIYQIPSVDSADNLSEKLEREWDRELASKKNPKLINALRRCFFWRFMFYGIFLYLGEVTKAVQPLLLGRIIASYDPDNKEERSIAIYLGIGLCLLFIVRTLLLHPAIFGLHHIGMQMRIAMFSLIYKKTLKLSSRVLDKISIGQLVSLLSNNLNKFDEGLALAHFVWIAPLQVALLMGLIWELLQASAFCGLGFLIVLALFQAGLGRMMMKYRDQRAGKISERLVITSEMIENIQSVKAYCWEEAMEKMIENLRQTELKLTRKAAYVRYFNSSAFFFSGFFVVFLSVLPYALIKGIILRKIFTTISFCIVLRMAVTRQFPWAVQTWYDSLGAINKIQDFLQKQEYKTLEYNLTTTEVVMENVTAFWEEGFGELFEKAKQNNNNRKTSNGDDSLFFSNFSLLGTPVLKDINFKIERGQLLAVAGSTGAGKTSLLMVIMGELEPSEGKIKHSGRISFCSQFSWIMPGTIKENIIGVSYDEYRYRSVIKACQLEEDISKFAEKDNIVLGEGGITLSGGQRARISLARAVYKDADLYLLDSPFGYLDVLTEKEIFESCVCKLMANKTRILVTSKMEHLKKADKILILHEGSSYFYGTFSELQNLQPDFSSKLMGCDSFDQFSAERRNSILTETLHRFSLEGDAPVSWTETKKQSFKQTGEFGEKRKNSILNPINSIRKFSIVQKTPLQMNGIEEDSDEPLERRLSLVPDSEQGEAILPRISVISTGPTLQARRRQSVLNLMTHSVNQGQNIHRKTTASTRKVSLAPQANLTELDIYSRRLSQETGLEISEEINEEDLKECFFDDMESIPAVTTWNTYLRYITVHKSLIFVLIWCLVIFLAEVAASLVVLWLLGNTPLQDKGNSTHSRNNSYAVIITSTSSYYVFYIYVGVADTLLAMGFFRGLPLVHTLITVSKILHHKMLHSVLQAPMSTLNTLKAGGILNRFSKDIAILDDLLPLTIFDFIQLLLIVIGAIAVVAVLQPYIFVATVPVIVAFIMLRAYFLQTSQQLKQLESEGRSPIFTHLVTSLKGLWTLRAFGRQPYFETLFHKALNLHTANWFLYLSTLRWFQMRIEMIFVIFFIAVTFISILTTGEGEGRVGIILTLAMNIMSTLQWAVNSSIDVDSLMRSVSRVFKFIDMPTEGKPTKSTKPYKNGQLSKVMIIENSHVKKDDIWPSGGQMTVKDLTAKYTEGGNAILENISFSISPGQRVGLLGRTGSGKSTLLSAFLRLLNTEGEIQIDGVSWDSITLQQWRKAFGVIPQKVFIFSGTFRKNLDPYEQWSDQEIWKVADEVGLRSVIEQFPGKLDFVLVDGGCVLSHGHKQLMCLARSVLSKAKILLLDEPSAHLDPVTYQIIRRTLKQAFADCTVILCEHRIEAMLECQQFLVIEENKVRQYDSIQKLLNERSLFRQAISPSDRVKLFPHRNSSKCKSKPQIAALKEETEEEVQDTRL
The experiment is described as follows: Assays for ΔF508-CFTR correction and potentiator properties (membrane potential optical and electrophysiological methods). Type of experiment: cell-based. The note with it: CFTR modulation; for % Activity: % Efficacy; for EC50: tested using the above methods. An outline of the steps: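 NIH3T3 mouse fibroblasts stably expressing ΔF508-CFTR were used, with membrane potential read by DiSBAC2(3)/CC2-DMPE FRET on VIPR. Correctors: 16 h compound exposure at 37 °C, then activation with forskolin plus genistein in Cl⁻-free medium. Potentiators: cells held 24 h at 27 °C, compound added in Cl⁻-free medium, 2-10 μM forskolin 22 s later (final Cl⁻ 28 mM).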

A word on the EC50: it is the midpoint of the concentration-response curve. For `O=C(Nc1ncc(Cc2ccccc2Cl)s1)C1CC1` [compound 207], the “% Activity” value is on record as “++ (“++” means between 25% to 100%)” and the EC50 was < 10 µM.

`CCC(=O)Nc1ncc(Cc2ccccc2Cl)s1` [compound 208]: the “% Activity” value was “++ (“++” means between 25% to 100%)” and the EC50 fell in the range of 25 to 60 µM.

With `O=C(Nc1ncc(Cc2ccccc2Cl)s1)C1CCCC1` [compound 209], the “% Activity” value is recorded as “++ (“++” means between 25% to 100%)” and the EC50 was < 10 µM.

Consider `CCCC(=O)Nc1ncc(Cc2ccccc2Cl)s1` [compound 210], for which the “% Activity” value is “++ (“++” means between 25% to 100%)” and the EC50 was in the range of 10 to 25 µM.

With `CN(C)C(C(=O)Nc1ncc(Cc2ccccc2Cl)s1)c1ccccc1` (centres unmarked) [compound 211], the “% Activity” value was “++ (“++” means between 25% to 100%)” and the EC50 was < 10 µM.

In the case of `CCN(CC)C(C(=O)Nc1ncc(Cc2ccccc2Cl)s1)c1ccccc1` (centres unmarked) [compound 212], the “% Activity” value is “++ (“++” means between 25% to 100%)” and the EC50 was < 10 µM.

For the compound `CCNC(C(=O)Nc1ncc(Cc2ccccc2Cl)s1)c1ccccc1` (centres unmarked) [compound 213], the “% Activity” value is “++ (“++” means between 25% to 100%)” and the EC50 was in the range of 10 to 25 µM.

Regarding `O=C(Nc1ncc(Cc2ccccc2Cl)s1)C(c1ccccc1)N1CCOCC1` (centres unmarked) [compound 214], the “% Activity” value was “++ (“++” means between 25% to 100%)” and the EC50 fell in the range of 10 to 25 µM.

For `O=C(Nc1ncc(Cc2ccccc2Cl)s1)C(c1ccccc1)N1CCCCC1` (centres unmarked) [compound 215], the “% Activity” value is recorded as “++ (“++” means between 25% to 100%)” and the EC50 was < 10 µM.

With `COC(C(=O)Nc1ncc(Cc2ccccc2Cl)s1)c1ccccc1` (centres unmarked) [compound 216], the “% Activity” value was “++ (“++” means between 25% to 100%)” and the EC50 is 10 to 25 µM.

On to `CNC(C(=O)Nc1ncc(Cc2ccccc2Cl)s1)c1ccccc1` (centres unmarked) [compound 217], for which the “% Activity” value is “++ (“++” means between 25% to 100%)” and the EC50 is 25 to 60 µM.

Turning to `CCC(NC)C(=O)Nc1ncc(Cc2ccccc2Cl)s1` (centres unmarked) [compound 218], the “% Activity” value is recorded as “++ (“++” means between 25% to 100%)” and the concentration for a half-maximal effect (EC50) was 25 to 60 µM.

Regarding `CCC(OC)C(=O)Nc1ncc(Cc2ccccc2Cl)s1` (centres unmarked) [compound 219], the “% Activity” value is reported as “++ (“++” means between 25% to 100%)” and the EC50 lay within 25 to 60 µM.

Consider `CCNC(CC)C(=O)Nc1ncc(Cc2ccccc2Cl)s1` (centres unmarked) [compound 220], for which the “% Activity” value is reported as “++ (“++” means between 25% to 100%)” and the EC50 was 25 to 60 µM.

Turning to `CCC(C(=O)Nc1ncc(Cc2ccccc2Cl)s1)N(CC)CC` (centres unmarked) [compound 221], the “% Activity” value is reported as “++ (“++” means between 25% to 100%)” and the EC50 was in the range of 10 to 25 µM.

For the compound `CCC(C(=O)Nc1ncc(Cc2ccccc2Cl)s1)N(C)C` (centres unmarked) [compound 222], the “% Activity” value was “++ (“++” means between 25% to 100%)” and the half-maximal effective concentration (EC50) was in the range of 25 to 60 µM.

`CCC(C(=O)Nc1ncc(Cc2ccccc2Cl)s1)N1CCOCC1` (centres unmarked) [compound 223]: the “% Activity” value is recorded as “++ (“++” means between 25% to 100%)” and the EC50 was in the range of 25 to 60 µM.

`CCC(C(=O)Nc1ncc(Cc2ccccc2Cl)s1)N1CCSCC1` (centres unmarked) [compound 224]: the “% Activity” value is “++ (“++” means between 25% to 100%)” and the half-maximal effective concentration (EC50) was < 10 µM.

Regarding `CCC(C(=O)Nc1ncc(Cc2ccccc2Cl)s1)N1CCCCC1` (centres unmarked) [compound 225], the “% Activity” value is given as “++ (“++” means between 25% to 100%)” and the EC50 was < 10 µM.

`Cc1cccc(C(=O)Nc2ncc(-c3ccccc3)s2)c1` [compound 226]: the “% Activity” value is listed as “++ (“++” means between 25% to 100%)” and the EC50 lay within 10 to 25 µM.

Take `COc1ccccc1-c1csc(NC(=O)c2cccc(Cl)c2)n1` [compound 227]: the “% Activity” value is listed as “++ (“++” means between 25% to 100%)” and the half-maximal effective concentration (EC50) lay within 10 to 25 µM.

As to `Cc1cccc(C(=O)Nc2nc(-c3ccccc3Cl)cs2)c1` [compound 228], the “% Activity” value was “++ (“++” means between 25% to 100%)” and the EC50 fell in the range of 10 to 25 µM.
